These results are taken from ChEMBL document CHEMBL4715710, “Discovery, synthesis, and structure-activity relationships of 20S-dammar-24-en-2α,3β,12β,20-tetrol (GP) derivatives as a new class of AMPKα2β1γ1 activators” (Bioorg Med Chem, 2016).

Calls of active or inactive are those of the source. No cut-off for these calls is given here.

Data set [1] in a line: Activation of human recombinant AMPK alpha2/beta1/gamma1 using substrate-1 peptide as substrate incubated for 45 mins in presence of ATP by HTRF assay. Background: In TR-FRET formats the signal depends on donor and acceptor labels being close together.
The species named for the next data set is Homo sapiens. Kind of data set: Activation of human recombinant AMPK alpha2/beta1/gamma1 using substrate-1 peptide as substrate incubated for 45 mins in presence of ATP by HTRF assay relative to negative control.
Data set [2] has as its system HepG2. Kind of data set: Activation of AMPK in human HepG2 cells assessed as induction of AMPK phosphorylation of Thr-172 residue at alpha subunit measured after 1 hr by Western blot analysis. As to conditions: filed as activator, dose 2.5-20 µM. Format: cell-based. Background: A western blot detects proteins with antibodies after separation by electrophoresis.
In data set [3] the test system is HepG2. In words: Activation of AMPK in human HepG2 cells assessed as induction of ACC phosphorylation at Ser79 residue measured after 1 hr by Western blot analysis. Format: cell-based. Conditions: filed as activator, dose 2.5-20 µM.
The next data set deals with L6. Kind of data set: Effect on mitochondrial membrane potential in rat L6 cells at 5 to 40 uM measured after 1 hr by JC-1 staining based assay. Format: functional, cell-based. As to conditions: dose 5-40 µM.
A short description of data set [4]: Inhibition of gluconeogenesis in C57/BL6 mouse primary hepatocytes at 20 uM measured after 6 hrs relative to control. Format: functional. Conditions: C57/BL6, Hepatocyte.
A further data set has as its system Hepatocyte. In words: Cytotoxicity against C57/BL6 mouse primary hepatocytes at 5 to 40 uM measured after 24 hrs by sulforhodamine B assay. Format: cell-based. Conditions: dose 5-40 µM. For orientation: Sulforhodamine B stains cellular protein and so reports cell mass.
Data set [5] relates to HepG2. Kind of data set: Activation of AMPK in human HepG2 cells assessed as induction of AMPK phosphorylation at alpha subunit at 2.5 to 20 uM measured after 1 hr by Western blot analysis. Format: cell-based. As to conditions: filed as activator, dose 2.5-20 µM.
Data set [6] concerns HepG2. Kind of data set: Activation of AMPK in human HepG2 cells assessed as induction of ACC phosphorylation at Ser79 residue at 2.5 to 20 uM measured after 1 hr by Western blot analysis. As to conditions: filed as activator, dose 2.5-20 µM. It is filed as cell-based.
Data set [7] in a line: Inhibition of gluconeogenesis in C57/BL6 mouse primary hepatocytes at 10 to 20 uM measured after 6 hrs relative to control. Format: functional, Hepatocyte. As to conditions: dose 10-20 µM.
In data set [8] the test system is Syrian golden hamster. Kind of data set: Antidyslipidemic activity against HFHC diet-induced hyperlipidemia in Golden Syrian hamster model assessed as decrease in total cholesterol level at 100 mg/kg, po bid via gavage administered for 2 weeks and measured after 28 days by automated chemistry analyzer. Conditions: Mesocricetus auratus. Format: functional, organism-based.

Data set [9] concerns Syrian golden hamster. Kind of data set: Antidyslipidemic activity against HFHC diet-induced hyperlipidemia in Golden Syrian hamster model assessed as decrease in low density lipoprotein cholesterol at 100 mg/kg, po bid via gavage administered for 2 weeks and measured after 28 days by automated chemistry analyzer. It is filed as functional, organism-based. Conditions: Mesocricetus auratus.

In data set [10] the test system is Syrian golden hamster. Kind of data set: Antidyslipidemic activity against HFHC diet-induced hyperlipidemia in Golden Syrian hamster model assessed as decrease in ratio of LDL-C to HDL-C at 100 mg/kg, po bid via gavage administered for 2 weeks and measured after 28 days by automated chemistry analyzer. Format: functional, organism-based. As to conditions: Mesocricetus auratus.

For data set [11], the system named is Syrian golden hamster. Kind of data set: Antidyslipidemic activity against HFHC diet-induced hyperlipidemia in Golden Syrian hamster model assessed as decrease in triglycerides at 100 mg/kg, po bid via gavage administered for 2 weeks and measured after 28 days by automated chemistry analyzer. Conditions: Mesocricetus auratus. It is filed as functional, organism-based.

Data set [12] relates to Syrian golden hamster. Kind of data set: Antidyslipidemic activity against HFHC diet-induced hyperlipidemia in Golden Syrian hamster model assessed as decrease in high density lipoprotein cholesterol at 100 mg/kg, po bid via gavage administered for 2 weeks and measured after 28 days by automated chemistry analyzer. Format: functional, organism-based. As to conditions: Mesocricetus auratus.

Data set [13] has as its system HepG2. In words: Activation of AMPK in human HepG2 cells assessed as induction of AMPK phosphorylation at alpha subunit at 20 uM measured after 1 hr by Western blot analysis. Conditions: filed as activator. Format: cell-based.
The test system of data set [14] is HepG2. In words: Activation of AMPK in human HepG2 cells assessed as induction of ACC phosphorylation at Ser79 residue at 20 uM measured after 1 hr by Western blot analysis. Conditions: filed as activator. Format: cell-based.

In general, EC50 refers to the concentration that produces a half-maximal response. For `CCNCCC[C@](C)(O)[C@H]1CC[C@]2(C)[C@@H]1[C@H](O)C[C@@H]1[C@@]3(C)C[C@@H](O)[C@H](O)C(C)(C)[C@@H]3CC[C@]12C`, in [1] (read-out: EC50), the EC50 stood at 1800 nM. For the same compound, the fold change (FC) in the data set listed under Homo sapiens (filed as activator) amounted to 2.3.
One may read the inhibition as the relative decrease from the control value, in per cent. The low end stands for a weak effect, the high end for a strong effect. Consider `CC1(C)[C@@H](O)[C@H](O)C[C@]2(C)[C@H]3C[C@@H](O)[C@@H]4[C@@H]([C@@](C)(O)CCCNCCCc5ccccc5)CC[C@@]4(C)[C@]3(C)CC[C@@H]12`, for which the EC50 in data set [1] (read-out: EC50) was determined as 800 nM. In the data set filed under Homo sapiens (filed as activator), the fold change (FC) turned out to be 2.7. Further, the Activity entry is “Dose-dependent effect” in the data set on HepG2 [2], “Dose-dependent effect” with HepG2 [3] and “Non-Toxic” in the data set with Hepatocyte. Besides, the outcome with L6 was Active. In data set [4], this compound gave an inhibition at 20 µM of 80%.
Consider `CC1(C)[C@@H](O)[C@H](O)C[C@]2(C)[C@H]3C[C@@H](O)[C@@H]4[C@@H]([C@@](C)(O)CCCNCc5ccccc5)CC[C@@]4(C)[C@]3(C)CC[C@@H]12`, for which, in [1] (read-out: EC50), the EC50 amounted to 5100 nM. In addition, the fold change (FC) in the data set filed under Homo sapiens (filed as activator) is 3.4.
Consider `CC(C)(O)[C@@H]1CC[C@](C)([C@H]2CC[C@]3(C)[C@@H]2[C@H](O)C[C@@H]2[C@@]4(C)C[C@@H](O)[C@H](O)C(C)(C)[C@@H]4CC[C@]23C)O1`, for which, in data set [1] (read-out: EC50), the EC50 stood at 8800 nM. The fold change (FC) in the data set listed under Homo sapiens (filed as activator) amounted to 3.6.
Take `CC(C)CCC[C@](C)(O)[C@H]1CC[C@]2(C)[C@@H]1[C@H](O)C[C@@H]1[C@@]3(C)C[C@@H](O)[C@H](O)C(C)(C)[C@@H]3CC[C@]12C`: in data set [1], the EC50 result was “Not Active”. Further, in the data set listed under Homo sapiens, the fold change (FC) was less than 1.5.
As for `CC1(C)[C@@H](O)[C@H](O)C[C@]2(C)[C@H]3C[C@@H](O)[C@@H]4[C@@H]([C@@](C)(O)CCCNCc5ccccn5)CC[C@@]4(C)[C@]3(C)CC[C@@H]12`, the EC50 in data set [1] (read-out: EC50) came to 800 nM. Further, the fold change (FC) in the data set listed under Homo sapiens (filed as activator) is 3. Moreover, the outcome with HepG2 [5], with HepG2 [6] and with L6 was Active. For the same compound, in data set [7], the “inhibition (INH)” value was 20%.
Turning to `CC(C)NCCC[C@](C)(O)[C@H]1CC[C@]2(C)[C@@H]1[C@H](O)C[C@@H]1[C@@]3(C)C[C@@H](O)[C@H](O)C(C)(C)[C@@H]3CC[C@]12C`, the EC50 in data set [1] (read-out: EC50) stood at 1200 nM. In addition, the fold change (FC) in the data set listed under Homo sapiens (filed as activator) stood at 2.
With `CNCCC[C@](C)(O)[C@H]1CC[C@]2(C)[C@@H]1[C@H](O)C[C@@H]1[C@@]3(C)C[C@@H](O)[C@H](O)C(C)(C)[C@@H]3CC[C@]12C`, the EC50 in [1] (read-out: EC50) worked out at 1900 nM. The fold change (FC) in the data set listed under Homo sapiens (filed as activator) was 2.6.
On to `Nc1ncnc2c1ncn2[C@@H]1O[C@H](COP(=O)(O)O)[C@@H](O)[C@H]1O` [ADENOSINE PHOSPHATE], for which the EC50 in [1] (read-out: EC50) was found to be 1600 nM. Further, in the data set listed under Homo sapiens (filed as activator), the fold change (FC) turned out to be 3.2.
For `CC(C)=CCC[C@](C)(O)[C@H]1CC[C@]2(C)[C@@H]1[C@H](O)C[C@@H]1[C@@]3(C)C[C@@H](O)[C@H](O)C(C)(C)[C@@H]3CC[C@]12C`, the result with Syrian golden hamster [8], in the data set on Syrian golden hamster [9], with Syrian golden hamster [10], with HepG2 [13] and in the data set on HepG2 [14] was Active. In addition, the outcome with Syrian golden hamster [11] and with Syrian golden hamster [12] was inactive. In addition, in data set [1] (read-out: EC50), the EC50 worked out at 5100 nM. Further, the fold change (FC) in the data set filed under Homo sapiens (filed as activator) is 2.4. In addition, in data set [4], at 20 µM the inhibition was 25%.
As for `COc1ccc(CNCCC[C@](C)(O)[C@H]2CC[C@]3(C)[C@@H]2[C@H](O)C[C@@H]2[C@@]4(C)C[C@@H](O)[C@H](O)C(C)(C)[C@@H]4CC[C@]23C)cc1OC`, the EC50 in data set [1] (read-out: EC50) turned out to be 1100 nM. Besides, in the data set listed under Homo sapiens (filed as activator), the fold change (FC) came out at 2.8.
Consider `COc1ccc(NCCC[C@](C)(O)[C@H]2CC[C@]3(C)[C@@H]2[C@H](O)C[C@@H]2[C@@]4(C)C[C@@H](O)[C@H](O)C(C)(C)[C@@H]4CC[C@]23C)cc1`, for which the EC50 in data set [1] (read-out: EC50) stood at 3800 nM. Besides, in the data set filed under Homo sapiens (filed as activator), the fold change (FC) was 2.9.
For `CC(C)(C)NCCC[C@](C)(O)[C@H]1CC[C@]2(C)[C@@H]1[C@H](O)C[C@@H]1[C@@]3(C)C[C@@H](O)[C@H](O)C(C)(C)[C@@H]3CC[C@]12C`, in that order: 4900 nM and 2.1.
In the case of `CC1(C)[C@@H](O)[C@H](O)C[C@]2(C)[C@H]3C[C@@H](O)[C@@H]4[C@@H]([C@@](C)(O)CCCNCc5ccncc5)CC[C@@]4(C)[C@]3(C)CC[C@@H]12`, the EC50 in data set [1] (read-out: EC50) came to 1200 nM. The fold change (FC) in the data set listed under Homo sapiens (filed as activator) came out at 4.1.
Regarding `CC(C)(O)[C@H]1CC[C@](C)([C@H]2CC[C@]3(C)[C@@H]2[C@H](O)C[C@@H]2[C@@]4(C)C[C@@H](O)[C@H](O)C(C)(C)[C@@H]4CC[C@]23C)O1`, in data set [1] (read-out: EC50), the EC50 was found to be 5500 nM. Moreover, in the data set filed under Homo sapiens (filed as activator), the fold change (FC) worked out at 3.9.
Turning to `COc1ccc(CNCCC[C@](C)(O)[C@H]2CC[C@]3(C)[C@@H]2[C@H](O)C[C@@H]2[C@@]4(C)C[C@@H](O)[C@H](O)C(C)(C)[C@@H]4CC[C@]23C)cc1`, the EC50 in data set [1] (read-out: EC50) amounted to 1000 nM. For the same compound, the fold change (FC) in the data set filed under Homo sapiens (filed as activator) was determined as 2.7.
For `C[C@H](NCCC[C@](C)(O)[C@H]1CC[C@]2(C)[C@@H]1[C@H](O)C[C@@H]1[C@@]3(C)C[C@@H](O)[C@H](O)C(C)(C)[C@@H]3CC[C@]12C)c1ccccc1`, in that order: 1400 nM and 2.8.
The matching figures for `CCCNCCC[C@](C)(O)[C@H]1CC[C@]2(C)[C@@H]1[C@H](O)C[C@@H]1[C@@]3(C)C[C@@H](O)[C@H](O)C(C)(C)[C@@H]3CC[C@]12C`: 1900 nM and 2.9.
As for `CC1(C)[C@@H](O)[C@H](O)C[C@]2(C)[C@H]3C[C@@H](O)[C@@H]4[C@@H]([C@@](C)(O)CCCNCc5ccc(F)cc5)CC[C@@]4(C)[C@]3(C)CC[C@@H]12`, in data set [1] (read-out: EC50), the EC50 came out at 300 nM. In addition, the fold change (FC) in the data set listed under Homo sapiens (filed as activator) came to 3.2. Also, the Activity result was “Dose-dependent effect” in the data set with HepG2 [2], “Dose-dependent effect” in the data set on HepG2 [3] and “Non-Toxic” with Hepatocyte. Further, the outcome with L6 was Active. In addition, testing at 20 µM in data set [4] gave an inhibition of 80%.
As for `CC1(C)[C@@H](O)[C@H](O)C[C@]2(C)[C@H]3C[C@@H](O)[C@@H]4[C@@H]([C@@](C)(O)CCCNCCc5ccccc5)CC[C@@]4(C)[C@]3(C)CC[C@@H]12`, the 50% effective concentration (EC50) in [1] (read-out: EC50) stood at 1200 nM. Further, the fold change (FC) in the data set listed under Homo sapiens (filed as activator) amounted to 2.
For `N#Cc1c(O)c2c(-c3ccc(-c4ccccc4O)cc3)csc2[nH]c1=O`, in that order: 9.6 nM and 4.2.
Consider `CC1(C)[C@@H](O)[C@H](O)C[C@]2(C)[C@H]3C[C@@H](O)[C@@H]4[C@@H]([C@@](C)(O)CCCNCc5cccnc5)CC[C@@]4(C)[C@]3(C)CC[C@@H]12`, for which, in data set [1] (read-out: EC50), the EC50 was 1000 nM. For the same compound, the fold change (FC) in the data set filed under Homo sapiens (filed as activator) is 2.8. Moreover, the result with HepG2 [5], with HepG2 [6] and in the data set with L6 was Active. Further, the “inhibition (INH)” value in data set [7] worked out at 20%.
